{"source": "paper PMC5428333", "about": "“Novel protein acetyltransferase, Rv2170, modulates carbon and energy metabolism in Mycobacterium tuberculosis” (Scientific Reports, 2017)", "molecular_target": "T1, ICDH1 (Rv3339c) (Mycobacterium tuberculosis, UniProt P9WKL1)", "T1 construct": "gene icd-1", "T1 sequence (P9WKL1 whole entry)": "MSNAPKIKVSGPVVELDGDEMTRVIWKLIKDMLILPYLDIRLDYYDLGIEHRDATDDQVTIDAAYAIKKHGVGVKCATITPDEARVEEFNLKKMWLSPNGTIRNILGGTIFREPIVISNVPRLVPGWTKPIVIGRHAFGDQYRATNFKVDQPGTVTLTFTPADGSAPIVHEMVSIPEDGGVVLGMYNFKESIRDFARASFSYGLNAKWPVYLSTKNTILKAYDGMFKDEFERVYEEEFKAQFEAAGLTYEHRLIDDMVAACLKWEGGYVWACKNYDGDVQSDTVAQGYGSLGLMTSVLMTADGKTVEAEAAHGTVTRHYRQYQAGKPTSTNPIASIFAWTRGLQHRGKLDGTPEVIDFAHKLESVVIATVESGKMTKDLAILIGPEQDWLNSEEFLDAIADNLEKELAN", "assay": "NADPH formation at […] nm", "assay_type": "biochemical", "details": "2 mM NADP+, 0.25 mM DL-isocitrate, 10 mM MgCl2, 5 mM MnCl2, 20 mM Tris-HCl pH 7.5, room temperature"}
{"smiles": "NC(=O)c1ccc[n+]([C@@H]2O[C@H](COP(=O)(O)OP(=O)(O)OC[C@H]3O[C@@H](n4cnc5c(N)ncnc54)[C@H](OP(=O)(O)O)[C@@H]3O)[C@@H](O)[C@H]2O)c1", "note": "[NADP^+]", "values": [{"measurement": "NADPH formation at 340 nm", "value": "monitoring the time dependent reduction of NADP^+ to NADPH"}]}
